From ChEMBL document CHEMBL1201862, “PubChem BioAssay data set” (2004)
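Exposure lasted 48 hours, with cells grown in 96-well plates and compounds tested at five concentrations. Abbreviation: GI50, concentration required for 50% inhibition of growth.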 Activity calls are given as the source filed them. No stated cut-off is given here; in the data, active = GI50 up to about 1.1 µM and inactive = higher.

Experiments:
Test in all cases: NCI anticancer screen, dose series, 48 h
OVCAR-5 = tested on: OVCAR-5
M14 = tested on: M14
KM12 = tested on: KM12
SNB-19 = tested on: SNB-19
COLO 205 = tested on: COLO 205
HOP-92 = tested on: HOP-92
NCI-H522 = tested on: NCI-H522
K562 = tested on: K562
SF-539 = tested on: SF-539
HCT-15 = tested on: HCT-15
NCI-H460 = tested on: NCI-H460
SNB-75 = tested on: SNB-75
EKVX = tested on: EKVX
RPMI-8226 = tested on: RPMI-8226
MOLT-4 = tested on: MOLT-4
SW-620 = tested on: SW-620
SK-MEL-5 = tested on: SK-MEL-5
T47D = tested on: T47D
HCT-116 = tested on: HCT-116
CCRF-CEM = tested on: CCRF-CEM

Structure (SMILES)	GI50 (OVCAR-5)	GI50 (M14)	GI50 (KM12)	GI50 (SNB-19)	GI50 (COLO 205)	GI50 (HOP-92)	GI50 (NCI-H522)	GI50 (K562)	GI50 (SF-539)	GI50 (HCT-15) [µM]	GI50 (NCI-H460)	GI50 (SNB-75)	GI50 (EKVX)	GI50 (RPMI-8226)	GI50 (MOLT-4)	GI50 (SW-620)	GI50 (SK-MEL-5)	GI50 (T47D)	GI50 (HCT-116)	GI50 (CCRF-CEM)
COc1ccc(/N=C2\C(=N/c3ccc(OC)cc3)N(S(=O)(=O)c3ccccc3)C(=S)N2c2ccccc2)cc1	> 100 µM (inactive)	> 100 µM (inactive)	> 100 µM (inactive)	> 100 µM (inactive)	> 100 µM (inactive)	> 100 µM (inactive)	86.3 µM (inactive)	> 100 µM (inactive)	> 100 µM (inactive)	> 100	> 100 µM (inactive)	> 100 µM (inactive)	> 100 µM (inactive)	> 100 µM (inactive)	> 100 µM (inactive)	> 100 µM (inactive)	> 100 µM (inactive)	> 100 µM (inactive)	–	–
CN(C)c1ccccc1CN1CCCN(Cc2ccccc2N(C)C)C1c1ccncc1	14.1 µM (inactive)	2.33 µM (inactive)	19.1 µM (inactive)	12.9 µM (inactive)	14.9 µM (inactive)	3.47 µM (inactive)	13 µM (inactive)	7.41 µM (inactive)	16.4 µM (inactive)	22.2	14 µM (inactive)	17.6 µM (inactive)	13.7 µM (inactive)	5.75 µM (inactive)	18.1 µM (inactive)	16.3 µM (inactive)	5.36 µM (inactive)	17.7 µM (inactive)	11.2 µM (inactive)	–
CC(=O)NC(C)c1ccc(/N=N/N2CCCC2)cc1 (configuration not stated)	> 100 µM (inactive)	> 100 µM (inactive)	> 100 µM (inactive)	> 100 µM (inactive)	> 100 µM (inactive)	> 100 µM (inactive)	> 100 µM (inactive)	–	> 100 µM (inactive)	> 100	–	> 100 µM (inactive)	> 100 µM (inactive)	–	–	> 100 µM (inactive)	> 100 µM (inactive)	> 100 µM (inactive)	> 100 µM (inactive)	> 100 µM (inactive)
Cc1cccc2c1C(=O)C(C1OC(=O)c3ccccc31)C2 (configuration not stated)	> 100 µM (inactive)	–	> 100 µM (inactive)	> 100 µM (inactive)	> 100 µM (inactive)	> 100 µM (inactive)	> 100 µM (inactive)	> 100 µM (inactive)	> 100 µM (inactive)	> 100	> 100 µM (inactive)	> 100 µM (inactive)	> 100 µM (inactive)	92.5 µM (inactive)	> 100 µM (inactive)	> 100 µM (inactive)	95.5 µM (inactive)	> 100 µM (inactive)	90.6 µM (inactive)	> 100 µM (inactive)
CCOC(=O)/C(C(=O)Nc1cccc(C(F)(F)F)c1)=C(/N)N1CCOCC1	> 100 µM (inactive)	> 100 µM (inactive)	> 100 µM (inactive)	> 100 µM (inactive)	> 100 µM (inactive)	> 100 µM (inactive)	> 100 µM (inactive)	> 100 µM (inactive)	> 100 µM (inactive)	> 100	> 100 µM (inactive)	> 100 µM (inactive)	> 100 µM (inactive)	> 100 µM (inactive)	> 100 µM (inactive)	> 100 µM (inactive)	–	> 100 µM (inactive)	> 100 µM (inactive)	> 100 µM (inactive)
CC1=C(C(=O)OC23CC4CC(CC(C4)C2)C3)C(c2ccccc2OC(F)F)C(C(=O)OC23CC4CC(CC(C4)C2)C3)=C(C)N1 (configuration not stated)	> 100 µM (inactive)	> 100 µM (inactive)	> 100 µM (inactive)	> 100 µM (inactive)	> 100 µM (inactive)	> 100 µM (inactive)	75.2 µM (inactive)	–	> 100 µM (inactive)	> 100	> 100 µM (inactive)	43.7 µM (inactive)	> 10 µM (inactive)	> 100 µM (inactive)	63.7 µM (inactive)	> 100 µM (inactive)	> 100 µM (inactive)	> 100 µM (inactive)	> 100 µM (inactive)	> 100 µM (inactive)
NC(=O)NC(=O)c1cccc(NC(=O)CCl)c1	1.65 µM (inactive)	–	0.579 µM (active)	–	0.394 µM (active)	4.34 µM (inactive)	1.55 µM (inactive)	0.714 µM (active)	0.655 µM (active)	0.948	1.5 µM (inactive)	1.98 µM (inactive)	7.01 µM (inactive)	1.18 µM (inactive)	1.11 µM (active)	0.621 µM (active)	0.71 µM (active)	2.18 µM (inactive)	0.392 µM (active)	0.855 µM (active)
O=C1c2cc(-c3ccccc3)cnc2S(=O)(=O)N1c1ccc(Br)cc1	40.8 µM (inactive)	76.9 µM (inactive)	25.5 µM (inactive)	15.8 µM (inactive)	> 100 µM (inactive)	27.1 µM (inactive)	14.8 µM (inactive)	–	30.5 µM (inactive)	34.7	24.3 µM (inactive)	25.1 µM (inactive)	> 100 µM (inactive)	21.1 µM (inactive)	46.3 µM (inactive)	81.8 µM (inactive)	70 µM (inactive)	37.7 µM (inactive)	71.9 µM (inactive)	24.9 µM (inactive)
S=c1[nH]nc(Cc2ccccc2)c(=S)[nH]1	> 50.2 µM (inactive)	> 78.9 µM (inactive)	> 79.8 µM (inactive)	> 87.9 µM (inactive)	> 79.6 µM (inactive)	23.3 µM (inactive)	> 51.1 µM (inactive)	61.1 µM (inactive)	> 76.4 µM (inactive)	> 62.1	> 52.5 µM (inactive)	23.1 µM (inactive)	–	50.8 µM (inactive)	> 59.7 µM (inactive)	> 100 µM (inactive)	46.7 µM (inactive)	21.6 µM (inactive)	> 61 µM (inactive)	> 100 µM (inactive)
N#CSCc1cccc(Nc2cc(=O)[nH]c(=O)[nH]2)c1	> 100 µM (inactive)	52 µM (inactive)	97.1 µM (inactive)	> 100 µM (inactive)	37.2 µM (inactive)	14.8 µM (inactive)	39.7 µM (inactive)	30.5 µM (inactive)	33 µM (inactive)	56.6	> 100 µM (inactive)	> 100 µM (inactive)	> 100 µM (inactive)	47.9 µM (inactive)	–	55.6 µM (inactive)	26.9 µM (inactive)	> 100 µM (inactive)	40.6 µM (inactive)	–
CC(C)(O)[C@@H]1CC[C@](C)(C2[C@@H](O)C[C@@]3(C)C4C[C@H](OC5OCC(O)C(O)C5O)[C@H]5C(C)(C)[C@@H](OC6OCC(O)C(O)C6OC6OCC(O)C(O)C6O)CC[C@@]56C[C@@]46CC[C@]23C)O1 (some centres not stated)	> 100 µM (inactive)	> 100 µM (inactive)	> 100 µM (inactive)	> 100 µM (inactive)	> 100 µM (inactive)	–	> 100 µM (inactive)	> 100 µM (inactive)	> 100 µM (inactive)	> 100	> 100 µM (inactive)	> 100 µM (inactive)	> 100 µM (inactive)	> 100 µM (inactive)	> 100 µM (inactive)	> 100 µM (inactive)	> 100 µM (inactive)	> 100 µM (inactive)	> 100 µM (inactive)	> 100 µM (inactive)
COc1cc(/C=C2\Sc3scc(-c4cccc([N+](=O)[O-])c4)[n+]3C2=O)cc(OC)c1OC	20.8 µM (inactive)	11.7 µM (inactive)	17.8 µM (inactive)	16.7 µM (inactive)	3.87 µM (inactive)	11.3 µM (inactive)	4.67 µM (inactive)	4.54 µM (inactive)	8.89 µM (inactive)	–	11 µM (inactive)	1.47 µM (inactive)	12.4 µM (inactive)	4.06 µM (inactive)	3.21 µM (inactive)	9.1 µM (inactive)	6.1 µM (inactive)	5.56 µM (inactive)	11.1 µM (inactive)	44.9 µM (inactive)
NC(=O)OCc1c(-c2ccccc2)nn(-c2ccccc2)c1COC(N)=O	> 100 µM (inactive)	> 100 µM (inactive)	> 100 µM (inactive)	> 100 µM (inactive)	> 100 µM (inactive)	> 100 µM (inactive)	> 100 µM (inactive)	–	> 100 µM (inactive)	> 100	–	45.7 µM (inactive)	–	> 100 µM (inactive)	–	> 100 µM (inactive)	> 100 µM (inactive)	> 100 µM (inactive)	> 100 µM (inactive)	–
CC(=O)NC1=C(Sc2ccc(Cl)cc2)C(=O)c2ccccc2C1=O	11.7 µM (inactive)	–	4.75 µM (inactive)	13.2 µM (inactive)	2 µM (inactive)	1.82 µM (inactive)	0.272 µM (active)	2.56 µM (inactive)	2.15 µM (inactive)	4.15	8.34 µM (inactive)	–	5.71 µM (inactive)	1.31 µM (inactive)	0.374 µM (active)	1.95 µM (inactive)	1.85 µM (inactive)	2.06 µM (inactive)	–	1.06 µM (active)
COc1ccc(OC2OC(CO)C(OCc3ccccc3)C(OCc3ccccc3)C2OCc2ccccc2)cc1 (configuration not stated)	> 100 µM (inactive)	> 100 µM (inactive)	72.9 µM (inactive)	> 100 µM (inactive)	44.4 µM (inactive)	–	40 µM (inactive)	6.1 µM (inactive)	63.2 µM (inactive)	–	15.8 µM (inactive)	11.3 µM (inactive)	11.4 µM (inactive)	> 100 µM (inactive)	2.02 µM (inactive)	> 100 µM (inactive)	54.8 µM (inactive)	18.8 µM (inactive)	14.8 µM (inactive)	6.98 µM (inactive)
